Test results reported in ChEMBL document CHEMBL3797052 (Eur J Med Chem, 2016).

Legend:
Assay type in all cases: functional
[1] = Cytotoxicity against human HCT116 cells assessed as growth inhibition at 100 uM after 2 days by MTT assay; conditions: HCT-116, 48 h, read-out: GI
[2] = Cytotoxicity against human HCT116 cells assessed as growth inhibition at 10 uM after 2 days by MTT assay; conditions: HCT-116, 48 h, read-out: GI
[3] = Cytotoxicity against human SKBR3 cells assessed as growth inhibition at 100 uM after 2 days by MTT assay; conditions: SK-BR-3, 48 h, read-out: GI
[4] = Cytotoxicity against human SKBR3 cells assessed as growth inhibition at 10 uM after 2 days by MTT assay; conditions: SK-BR-3, 48 h, read-out: GI
K562 = test: Antiproliferative activity against human K562 cells assessed as cell growth at 10^-5 M after 48 hrs by sulforhodamine B assay; conditions: K562, 48 h, read-out: Activity
[5] = Antiproliferative activity against human MOLT4 cells assessed as cell growth at 10^-5 M after 48 hrs by sulforhodamine B assay; conditions: MOLT-4, 48 h, read-out: Activity
[6] = Antiproliferative activity against human RPMI8226 cells assessed as cell growth at 10^-5 M after 48 hrs by sulforhodamine B assay; conditions: RPMI-8226, 48 h, read-out: Activity
EKVX = test: Antiproliferative activity against human EKVX cells assessed as cell growth at 10^-5 M after 48 hrs by sulforhodamine B assay; conditions: read-out: Activity
[7] = Antiproliferative activity against human HOP62 cells assessed as cell growth at 10^-5 M after 48 hrs by sulforhodamine B assay; conditions: HOP-62, 48 h, read-out: Activity
NCI-H226 = test: Antiproliferative activity against human NCI-H226 cells assessed as cell growth at 10^-5 M after 48 hrs by sulforhodamine B assay; conditions: NCI-H226, 48 h, read-out: Activity
NCI-H23 = test: Antiproliferative activity against human NCI-H23 cells assessed as cell growth at 10^-5 M after 48 hrs by sulforhodamine B assay; conditions: NCI-H23, 48 h, read-out: Activity
NCI-H322M = test: Antiproliferative activity against human NCI-H322M cells assessed as cell growth at 10^-5 M after 48 hrs by sulforhodamine B assay; conditions: read-out: Activity
NCI-H522 = test: Antiproliferative activity against human NCI-H522 cells assessed as cell growth at 10^-5 M after 48 hrs by sulforhodamine B assay; conditions: NCI-H522, 48 h, read-out: Activity
[8] = Antiproliferative activity against human COLO205 cells assessed as cell growth at 10^-5 M after 48 hrs by sulforhodamine B assay; conditions: COLO 205, 48 h, read-out: Activity
[9] = Antiproliferative activity against human HCT116 cells assessed as cell growth at 10^-5 M after 48 hrs by sulforhodamine B assay; conditions: HCT-116, 48 h, read-out: Activity
[10] = Antiproliferative activity against human HCT15 cells assessed as cell growth at 10^-5 M after 48 hrs by sulforhodamine B assay; conditions: HCT-15, 48 h, read-out: Activity
[11] = Antiproliferative activity against human SW620 cells assessed as cell growth at 10^-5 M after 48 hrs by sulforhodamine B assay; conditions: SW-620, 48 h, read-out: Activity
[12] = Antiproliferative activity against human SF268 cells assessed as cell growth at 10^-5 M after 48 hrs by sulforhodamine B assay; conditions: SF-268, 48 h, read-out: Activity
[13] = Antiproliferative activity against human SF295 cells assessed as cell growth at 10^-5 M after 48 hrs by sulforhodamine B assay; conditions: SF-295, 48 h, read-out: Activity
[14] = Antiproliferative activity against human SF539 cells assessed as cell growth at 10^-5 M after 48 hrs by sulforhodamine B assay; conditions: SF-539, 48 h, read-out: Activity
[15] = Antiproliferative activity against human SNB19 cells assessed as cell growth at 10^-5 M after 48 hrs by sulforhodamine B assay; conditions: SNB-19, 48 h, read-out: Activity
[16] = Antiproliferative activity against human SNB75 cells assessed as cell growth at 10^-5 M after 48 hrs by sulforhodamine B assay; conditions: SNB-75, 48 h, read-out: Activity
U-251 = test: Antiproliferative activity against human U251 cells assessed as cell growth at 10^-5 M after 48 hrs by sulforhodamine B assay; conditions: U-251, 48 h, read-out: Activity
Malme-3M = test: Antiproliferative activity against human MALME-3M cells assessed as cell growth at 10^-5 M after 48 hrs by sulforhodamine B assay; conditions: read-out: Activity
M14 = test: Antiproliferative activity against human M14 cells assessed as cell growth at 10^-5 M after 48 hrs by sulforhodamine B assay; conditions: M14, 48 h, read-out: Activity
SK-MEL-2 = test: Antiproliferative activity against human SK-MEL-2 cells assessed as cell growth at 10^-5 M after 48 hrs by sulforhodamine B assay; conditions: SK-MEL-2, 48 h, read-out: Activity
[17] = Antiproliferative activity against human OVCAR4 cells assessed as cell growth at 10^-5 M after 48 hrs by sulforhodamine B assay; conditions: OVCAR-4, 48 h, read-out: Activity
[18] = Antiproliferative activity against human NCI-ADR-RES cells assessed as cell growth at 10^-5 M after 48 hrs by sulforhodamine B assay; conditions: read-out: Activity
[19] = Antiproliferative activity against human SKOV3 cells assessed as cell growth at 10^-5 M after 48 hrs by sulforhodamine B assay; conditions: SK-OV-3, 48 h, read-out: Activity
ACHN = test: Antiproliferative activity against human ACHN cells assessed as cell growth at 10^-5 M after 48 hrs by sulforhodamine B assay; conditions: read-out: Activity
SN12C = test: Antiproliferative activity against human SN12C cells assessed as cell growth at 10^-5 M after 48 hrs by sulforhodamine B assay; conditions: read-out: Activity
[20] = Antiproliferative activity against human UO31 cells assessed as cell growth at 10^-5 M after 48 hrs by sulforhodamine B assay; conditions: UO-31, 48 h, read-out: Activity
[21] = Antiproliferative activity against human PC3 cells assessed as cell growth at 10^-5 M after 48 hrs by sulforhodamine B assay; conditions: PC-3, 48 h, read-out: Activity
[22] = Antiproliferative activity against human DU145 cells assessed as cell growth at 10^-5 M after 48 hrs by sulforhodamine B assay; conditions: DU-145, 48 h, read-out: Activity
[23] = Antiproliferative activity against human Hs 578T cells assessed as cell growth at 10^-5 M after 48 hrs by sulforhodamine B assay; conditions: read-out: Activity
[24] = Antiproliferative activity against human BT549 cells assessed as cell growth at 10^-5 M after 48 hrs by sulforhodamine B assay; conditions: BT-549, 48 h, read-out: Activity
MDA-MB-468 = test: Antiproliferative activity against human MDA-MB-468 cells assessed as cell growth at 10^-5 M after 48 hrs by sulforhodamine B assay; conditions: MDA-MB-468, 48 h, read-out: Activity

Structure (SMILES)	inhibition of growth at 100 µM [1]	inhibition of growth at 10 µM [2]	inhibition of growth at 100 µM [3]	inhibition of growth at 10 µM [4]	growth at 10 µM (K562)	growth at 10 µM [6]	growth at 10 µM (EKVX)	growth at 10 µM [7]	growth at 10 µM (NCI-H226)	growth at 10 µM (NCI-H23)	growth at 10 µM (NCI-H322M)	growth at 10 µM (NCI-H522)	growth at 10 µM [8]	growth at 10 µM [9]	growth at 10 µM [10]	growth at 10 µM [11]	growth at 10 µM [12]	growth at 10 µM [13]	growth at 10 µM [14]	growth at 10 µM [16]	other results
CNC(=O)c1cc(Oc2ccc3nc(NC(=O)c4cc(C(F)(F)F)cc(C(F)(F)F)c4)sc3c2)ccn1	76.9%	16.8%	80.4%	8.56%	7%	10%	15%	2%	19%	15%	18%	-6%	-9%	7%	19%	42%	11%	1%	12%	10%	growth at 10 µM [5]: 1%; growth at 10 µM [15]: 16%; growth at 10 µM (U-251): 12%; growth at 10 µM (Malme-3M): -17%; growth at 10 µM (M14): 15%; growth at 10 µM (SK-MEL-2): -19%; growth at 10 µM [17]: 10%; growth at 10 µM [18]: 15%; growth at 10 µM [19]: -10%; growth at 10 µM (ACHN): 6%; growth at 10 µM (SN12C): 6%; growth at 10 µM [20]: -4%; growth at 10 µM [21]: 5%; growth at 10 µM [22]: 16%; growth at 10 µM [23]: 6%; growth at 10 µM [24]: 5%; growth at 10 µM (MDA-MB-468): 5%
CNC(=O)c1cc(Oc2ccc(NC(=O)Nc3ccc(Cl)c(C(F)(F)F)c3)cc2)ccn1 [SORAFENIB]	97.3%	48.4%	93.1%	48.9%																	
CNC(=O)c1cc(Oc2ccc3nc(NC(=O)c4ccc(Cl)c(C(F)(F)F)c4)sc3c2)ccn1	92.3%	30.2%	86.5%	6.26%	69.9%	64.8%	78.8%	83.7%	93.4%	69.1%	87.4%	57.3%	80.4%	61.9%	85%	92.4%	85.3%	78.3%	69.9%	39%	growth at 10 µM [5]: 67.3%; growth at 10 µM (U-251): 59.2%; growth at 10 µM (Malme-3M): 57%; growth at 10 µM (M14): 89.9%; growth at 10 µM (SK-MEL-2): 96.5%; growth at 10 µM [17]: 36.7%; growth at 10 µM [18]: 64.9%; growth at 10 µM [19]: 85.3%; growth at 10 µM (ACHN): 60.6%; growth at 10 µM (SN12C): 75.6%; growth at 10 µM [20]: 80.4%; growth at 10 µM [21]: 62.7%; growth at 10 µM [22]: 73%; growth at 10 µM [23]: 66.2%; growth at 10 µM [24]: 80.6%; growth at 10 µM (MDA-MB-468): 48.5%
CNC(=O)c1cc(Oc2ccc3nc(NC(=O)c4ccc5ncccc5c4)sc3c2)ccn1	72.3%	22.5%	29.6%	17.1%	93.7%	71.9%	87.5%	112%	68.6%	92.7%	99%	54.3%	95.8%	103%	91.1%	112%	97.5%	86.9%	107%	86.5%	growth at 10 µM [5]: 94.2%; growth at 10 µM [15]: 95.1%; growth at 10 µM (U-251): 93.6%; growth at 10 µM (Malme-3M): 80.5%; growth at 10 µM (M14): 102%; growth at 10 µM (SK-MEL-2): 86.2%; growth at 10 µM [17]: 87.4%; growth at 10 µM [18]: 88.8%; growth at 10 µM (ACHN): 102%; growth at 10 µM (SN12C): 92.6%; growth at 10 µM [20]: 77%; growth at 10 µM [21]: 93.2%; growth at 10 µM [22]: 105%; growth at 10 µM [23]: 108%; growth at 10 µM [24]: 82.3%; growth at 10 µM (MDA-MB-468): 73.7%
CNC(=O)c1cc(Oc2ccc3nc(NC(=O)Nc4ccc(Cl)c(C(F)(F)F)c4)sc3c2)ccn1	94.4%	82.8%	94.5%	79.6%	32%	-10%	-50%	-42%	-14%	-8%	-14%	6%	-11%	-29%	-9%	4%	1%	-68%	-60%	-75%	growth at 10 µM [5]: 38%; growth at 10 µM (U-251): -66%; growth at 10 µM (Malme-3M): -62%; growth at 10 µM (M14): -29%; growth at 10 µM (SK-MEL-2): 37%; growth at 10 µM [17]: -75%; growth at 10 µM [18]: -21%; growth at 10 µM [19]: -54%; growth at 10 µM (ACHN): -67%; growth at 10 µM (SN12C): 1%; growth at 10 µM [20]: -54%; growth at 10 µM [21]: -67%; growth at 10 µM [22]: -10%; growth at 10 µM [23]: -17%; growth at 10 µM [24]: -1%; growth at 10 µM (MDA-MB-468): -40%
CNC(=O)c1cc(Oc2ccc3nc(NC(=O)Nc4cc(C(F)(F)F)cc(C(F)(F)F)c4)sc3c2)ccn1	98.4%	87.5%	96.3%	88.1%	-20%	-37%	-31%	-72%	-57%	-59%	-57%	-58%	-79%	-90%	-70%	-74%	-77%	-89%	-78%	-66%	growth at 10 µM [15]: -34%; growth at 10 µM (U-251): -98%; growth at 10 µM (Malme-3M): -74%; growth at 10 µM (M14): -74%; growth at 10 µM (SK-MEL-2): -53%; growth at 10 µM [17]: -64%; growth at 10 µM [18]: -62%; growth at 10 µM [19]: -71%; growth at 10 µM (ACHN): -77%; growth at 10 µM (SN12C): -58%; growth at 10 µM [20]: -87%; growth at 10 µM [21]: -65%; growth at 10 µM [22]: -69%; growth at 10 µM [23]: -34%; growth at 10 µM [24]: -71%; growth at 10 µM (MDA-MB-468): -70%
